The source of these data is US6723753B2, “Substituted n-benzyl-n-phenyl aminoalcohol compounds useful for inhibiting cholesteryl ester transfer protein activity” (Pharmacia Corporation, priority 2002, dated 2004).

Experiment [1] concerns the target T1, CETP (Homo sapiens, UniProt P11597).
T1 sequence (P11597 18-493): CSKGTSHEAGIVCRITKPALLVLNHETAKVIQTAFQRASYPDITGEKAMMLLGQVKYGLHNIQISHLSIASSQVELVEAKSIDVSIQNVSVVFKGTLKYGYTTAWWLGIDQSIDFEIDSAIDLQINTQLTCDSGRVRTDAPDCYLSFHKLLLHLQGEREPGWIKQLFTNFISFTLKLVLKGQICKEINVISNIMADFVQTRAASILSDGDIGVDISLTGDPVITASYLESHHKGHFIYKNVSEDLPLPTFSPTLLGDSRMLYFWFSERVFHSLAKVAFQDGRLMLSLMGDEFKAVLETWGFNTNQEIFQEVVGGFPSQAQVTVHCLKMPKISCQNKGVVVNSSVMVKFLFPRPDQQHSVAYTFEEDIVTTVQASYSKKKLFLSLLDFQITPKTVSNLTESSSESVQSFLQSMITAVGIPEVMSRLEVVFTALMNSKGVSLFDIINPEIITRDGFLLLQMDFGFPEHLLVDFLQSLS
As to the kind of experiment: Assay of CETP Inhibition using Purified Components (Reconstituted Buffer Assay). The experiment is classed as biochemical. Details: made in house; host or cells: CHO cells (serum-free conditioned medium). A digest of the protocol:
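Purified human recombinant CETP from transfected CHO cells was incubated with [^3H]CE-labeled HDL donor and LDL acceptor in Tris pH 7.4/NaCl/EDTA/1% BSA buffer for 2 h at 37 °C. LDL was then precipitated with dextran sulfate/MgCl2, filtered, and counted by liquid scintillation to give IC50 for CE transfer.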

The target of experiment [2] is T1, CETP. As to the kind of experiment: Assay of CETP Inhibition in Human Plasma. More on the design: Blood was obtained from healthy volunteers, recruited from the personnel of Monsanto Company; from tissue; host or cells: human EDTA plasma pool from healthy volunteers. Format: biochemical. The following applies: Inhibition of CETP activity in human plasma assay; transfer of [3H]CE from HDL to VLDL and LDL; read-out: IC50. As for the experimental part: Assay of CETP Inhibition in Human Plasma
Blood was obtained from healthy volunteers, recruited from the personnel of Monsanto Company, Saint Louis, Mo. Blood was collected in tubes containing EDTA (EDTA plasma pool). The EDTA human plasma pool, previously stored at −20° C., was thawed at room temperature and centrifuged for 5 minutes to remove any particulate matter. […] Equal volumes (396 μL) of the plasma containing the [^3H]CE-HDL were added by pipette into micro tubes (Titertube®, Bio-Rad laboratories, Hercules, Calif.). Inhibitor compounds, dissolved as 20-50 mM stock solutions in DMSO, were serially diluted in DMSO (or an alternative solvent in some cases, such as dimethylformamide or ethanol). Four μL of each of the serial dilutions of inhibitor compounds or DMSO alone were then added to each of the tubes containing plasma (396 μL). After mixing, triplicate aliquots (100 μL) from each plasma tube were then transferred to wells of 96-well round-bottomed polystyrene microtiter plates (Corning, Corning, N.Y.). Plates were sealed with plastic film and incubated at 37° C. for 4 hours. “Test” samples contained plasma with dilutions of inhibitor compounds. “Control” samples contained plasma with DMSO diluted to the same concentration as the test samples, but without inhibitor. “Blank” samples were prepared as “control” samples, but were left in the micro tubes at 4° C. for the 4 hour incubation and were then added to the microtiter wells at the end of the incubation period. VDL and LDL were precipitated by the addition of 10 μL of precipitating reagent (1% (w/v) dextran sulfate (Dextralip50)/0.5 M magnesium chloride, pH 7.4) to all wells. The wells were mixed on a plate mixer and then incubated at ambient temperature for 10 min. The plates were then centrifuged at 1000× g for 30 min at 10° C. The supernatants (50 μL) from each well were then transferred to Picoplate™ 96 plate wells (Packard, Meriden, Conn.) containing Microscint™-40 (Packard, Meriden, Conn.). The plates were heat-sealed (TopSeal™-P, Packard, Meriden, Conn.) according to the manufacturer's directions and mixed for 30 min. Radioactivity was measured on a microplate scintillation counter (TopCount, Packard, Meriden, Conn.). The maximum percentage transfer in the control wells (% transfer) was determined using the following equation: [formula]
The percentage of transfer relative to the control (% control) was determined in the wells containing inhibitor compounds was determined as follows: [formula]
IC50 values were then calculated from plots of % control versus concentration of inhibitor compound.

Where [3] appears, read: Inhibition of CETP activity in reconstituted buffer assay, transfer of [3H]CE from HDL to LDL, read-out: IC50.

As a reminder, the IC50 is the concentration needed to halve the response being measured. On to `OC(CN(Cc1cccc(OC(F)(F)C(F)F)c1)c1cccc(-c2ccc(F)c(F)c2)c1)C(F)(F)F` (stereo not drawn) [Example 559], for which the values for the IC50 at CETP [1] (setting [3]) and at CETP [2] were 0.56 µM and 8 µM, respectively.

`Cc1cc(Oc2cccc(N(Cc3cccc(OC(F)(F)C(F)F)c3)CC(O)C(F)(F)F)c2)cc(C)c1C` (stereo not drawn) [Example 247]: the IC50 on CETP [1] (setting [3]) is 0.37 µM; on CETP [2] it was 17 µM.

As for `OC(CN1Cc2ccccc2CCc2ccccc21)C(F)(F)F` (stereo not drawn) [Example 219], the half-maximal inhibitory concentration (IC50) at CETP [1] (setting [3]) and at CETP [2] was > 100 µM throughout.

On to `OC(CCl)COc1cccc(CN(CC(O)C(F)(F)F)c2cccc(OC(F)(F)F)c2)c1` (stereo not drawn) [Example 104], for which the half-maximal inhibitory concentration (IC50) at CETP [1] (setting [3]) is 3 µM; on CETP [2], > 100 µM.

As for `OC(CN(Cc1cccc(OC(F)(F)C(F)F)c1)c1cccc(OCc2ccc(C(F)(F)F)cc2C(F)(F)F)c1)C(F)(F)F` (stereo not drawn) [Example 396], the 50% inhibitory concentration (IC50) was determined as 0.86 µM at CETP [1] (setting [3]) and 10 µM on CETP [2].

As to `COc1ccc(Nc2cccc(N(Cc3cccc(OC(F)(F)C(F)F)c3)CC(O)C(F)(F)F)c2)cc1` (stereo not drawn) [Example 292, 3-[[3-[(4-methoxyphenyl)amino]phenyl]-[[3-(1,1,2,2-tetrafluoro-ethoxy)phenyl]methyl]amino]-1,1,1-trifluoro-2-propanol], the values for the half-inhibitory concentration (IC50) on CETP [1] (setting [3]) and on CETP [2] were 0.59 µM and 38 µM, respectively.

Take `OC(CN(Cc1cccc(OC(F)(F)C(F)F)c1)c1cccc(OCc2cc(F)cc(F)c2)c1)C(F)(F)F` (stereo not drawn) [Example 378]: the concentration for half-maximal inhibition (IC50) at CETP [1] (setting [3]) is 0.2 µM; on CETP [2] it was 12 µM.

For `OC(CN(Cc1cccc(Br)c1)c1cccc(Oc2ccccc2)c1)C(F)(F)F` (stereo not drawn) [Example 595B, 3-[(3-phenoxyphenyl)[[3-bromophenyl]methyl]amino]-1,1,1-trifluoro-2-propanol], the IC50 on CETP [1] (setting [3]) was 4.5 µM; on CETP [2], > 100 µM.

In the case of `OC(CN(Cc1cccc(Oc2ccccc2)c1)c1cccc(OCc2ccccc2)c1)C(F)(F)F` (stereo not drawn) [Example 127], the half-inhibitory concentration (IC50) on CETP [1] (setting [3]) is 7 µM; at CETP [2], > 100 µM.

As to `OC(CN(Cc1ccc(C(F)(F)F)cc1)c1cccc(OC(F)(F)F)c1)C(F)(F)F` (stereo not drawn) [Example 140], the IC50 at CETP [1] (setting [3]) stood at 1.6 µM; on CETP [2], 80 µM.

On to `OC(CN(Cc1cccc(OC(F)(F)C(F)F)c1)c1cccc(-c2cccc(C(F)(F)F)c2)c1)C(F)(F)F` (stereo not drawn) [Example 550, 1,1,1-trifluoro-3-[[[3-(1,1,2,2-tetrafluoroethoxy)phenyl]methyl][[3′-(trifluoromethyl)1,1′-biphenyl]-3-yl]amino]-2-propanol], for which the concentration for half-maximal inhibition (IC50) on CETP [1] (setting [3]) is 0.5 µM; on CETP [2] it was 30 µM.

On to `OC(CN(Cc1cccc(OC(F)(F)C(F)F)c1)c1cccc(OCc2cccc(I)c2)c1)C(F)(F)F` (stereo not drawn) [Example 405], for which the figures for the IC50 on CETP [1] (setting [3]) and at CETP [2] were 0.6 µM and 6.2 µM, respectively.

As for `O=S(=O)(c1ccccc1)c1cccc(N(Cc2cccc(OC(F)(F)C(F)F)c2)CC(O)C(F)(F)F)c1` (stereo not drawn) [compound 218], the IC50 at CETP [1] (setting [3]) was 0.91 µM; at CETP [2], 31 µM.

With `Cc1cccc(COc2cccc(N(Cc3cccc(OC(F)(F)C(F)F)c3)CC(O)C(F)(F)F)c2)c1` (stereo not drawn) [Example 402], the 50% inhibitory concentration (IC50) came out at 0.33 µM at CETP [1] (setting [3]) and 2.9 µM at CETP [2].

Regarding `OC(CN(Cc1ccc(C(F)(F)F)cc1)c1ccc(-c2ccccc2)cc1)C(F)(F)F` (stereo not drawn) [Example 141], the IC50 on CETP [1] (setting [3]) was 5 µM; at CETP [2], > 100 µM.

`OC(CN(Cc1cccc(OC(F)(F)F)c1)c1cccc(Oc2ccc(F)cc2)c1)C(F)(F)F` (stereo not drawn) [Example 166]: the IC50 on CETP [1] (setting [3]) is 0.78 µM; at CETP [2], 30 µM.

As to `OC(CN(Cc1cccc(OC(F)(F)C(F)F)c1)c1cccc(Oc2cc(Br)ccc2F)c1)C(F)(F)F` (stereo not drawn) [Example 630, 3-[[3-(-5-bromo-2-fluorophenoxy)phenyl][[3-(1,1,2,2-tetrafluoro-ethoxy)phenyl]methyl]amino]-1,1,1-trifluoro-2-propanol], the IC50 was determined as 0.05 µM on CETP [1] (setting [3]) and 1.8 µM at CETP [2].

Turning to `OC(CN(Cc1cccc(OC(F)(F)F)c1)c1ccc2c(c1)OC(F)(F)C(F)(F)O2)C(F)(F)F` (stereo not drawn) [Example 89], the half-maximal inhibitory concentration (IC50) on CETP [1] (setting [3]) is 2.3 µM; at CETP [2] it was 60 µM.

Consider `OC(CN(Cc1cccc(OC(F)(F)F)c1)c1ccc2ccccc2c1)C(F)(F)F` (stereo not drawn) [Example 76], for which the IC50 is 6 µM on CETP [1] (setting [3]) and > 200 µM on CETP [2].

For `OC(CN(Cc1cccc(OC(F)(F)C(F)F)c1)c1ccc(-c2ccccc2)cc1)C(F)(F)F` (stereo not drawn) [Example 87], the IC50 on CETP [1] (setting [3]) was 4 µM; at CETP [2], 60 µM.

As to `OC(CN(Cc1cccc(OC(F)(F)C(F)F)c1)c1cccc(Nc2cc(F)cc(F)c2)c1)C(F)(F)F` (stereo not drawn) [Example 307], the IC50 on CETP [1] (setting [3]) stood at 2 µM; on CETP [2] it was 81 µM.

On to `OC(CN(Cc1cccc(OC(F)(F)F)c1)c1cccc(C(F)(F)F)c1)C(F)(F)F` (stereo not drawn) [Example 42], for which the IC50 stood at 7 µM at CETP [1] (setting [3]) and 80 µM at CETP [2].

Consider `OC(CN(Cc1cccc(I)c1)c1cccc(OC(F)(F)F)c1)C(F)(F)F` (stereo not drawn) [Example 322], for which the 50% inhibitory concentration (IC50) at CETP [1] (setting [3]) was 3 µM; at CETP [2], > 100 µM.

With `OC(CN(Cc1cccc(C(F)(F)F)c1)c1cc(C(F)(F)F)ccc1C(F)(F)F)C(F)(F)F` (stereo not drawn) [Example 691], the IC50 was 3 µM at CETP [1] (setting [3]) and > 100 µM at CETP [2].

For the molecule `OC(COc1cccc(CN(CC(O)C(F)(F)F)c2cccc(Oc3ccc(F)cc3)c2)c1)C(F)(F)F` (stereo not drawn) [Example 655B, 3-[3-(4-fluorophenoxy)phenyl[[3-(2-hydroxy-3,3,3-trifluoro-n-propoxy)phenyl]methyl]amino]-1,1,1-trifluoro-2-propanol], the values for the IC50 on CETP [1] (setting [3]) and on CETP [2] were 1.3 µM and 63 µM, respectively.

As for `OC(CN(Cc1cccc(OC(F)(F)C(F)F)c1)c1cccc(NCc2cccc(C(F)(F)F)c2)c1)C(F)(F)F` (stereo not drawn) [Example 311], the half-inhibitory concentration (IC50) was 2.6 µM at CETP [1] (setting [3]) and > 100 µM at CETP [2].

With `OC(CN(Cc1cccc(OC(F)(F)C(F)F)c1)c1cccc(Oc2ccc(Br)cc2)c1)C(F)(F)F` (stereo not drawn) [Example 269], the IC50 turned out to be 0.59 µM on CETP [1] (setting [3]) and 22 µM on CETP [2].

`COC(=O)C=CCOc1cccc(N(Cc2cccc(OC(F)(F)C(F)F)c2)CC(O)C(F)(F)F)c1` (stereo not drawn) [Example 499]: the IC50 at CETP [1] (setting [3]) came out at 0.83 µM; on CETP [2], 34 µM.

For the molecule `OC(CN(Cc1cccc(OC(F)(F)C(F)F)c1)c1cccc(N2CCCCC2)c1)C(F)(F)F` (stereo not drawn) [compound 315], the values for the IC50 on CETP [1] (setting [3]) and on CETP [2] were 2.1 µM and > 100 µM, respectively.

As to `OC(CN(Cc1cccc(OC(F)(F)C(F)F)c1)c1cccc(-c2cc(Cl)cc(Cl)c2)c1)C(F)(F)F` (stereo not drawn) [Example 557], the concentration for half-maximal inhibition (IC50) was 0.88 µM on CETP [1] (setting [3]) and 34 µM at CETP [2].

On to `CC(=O)OC(CN(Cc1cccc(C(F)(F)F)c1)c1cccc(F)c1)C(F)(F)F` (stereo not drawn) [Example 664, 2,2,2-trifluoro-1-[[(3-fluorophenyl)[3-(trifluoromethyl)phenyl]-methyl]amino]methyl]ethyl Acetate], for which the half-maximal inhibitory concentration (IC50) against CETP [1] was 70 µM; at CETP [2], > 200 µM.

With `OC(CN(Cc1cccc(-c2ccccc2C(F)(F)F)c1)c1cccc(Oc2ccccc2)c1)C(F)(F)F` (stereo not drawn) [Example 600, 3-[(3-phenoxyphenyl)[[2′-(trifluoromethyl)[1,1′-biphenyl]-3-yl]methyl]amino]-1,1,1-trifluoro-2-propanol], at CETP [2], the 50% inhibitory concentration (IC50) is > 100 µM.
